Reference: US20020037844A1, “SYNTHETIC PEPTIDE FOR TREATMENT OF AUTOIMMUNE ARTHRITIS” (priority 1993, published 2002)
“Also recorded” adds a separate entry of the source. Blank lines part the entries; values can stand above or below the substance they belong to.

How the values were obtained:
[1] = molecular target: T1, I-A^q on the surface of antigen presenting cells (Mus musculus, UniProt P04227+P06342); experiment: Competitive antigen presentation assay: pulsed APC presented to CII 245-270 specific T-cell hybridomas, IL-2 titer; format: cell-based, DBA/1 mice; conditions: for Binding to I-A^q / competition for presentation of the wild type peptide to T-cell hybridomas: conclusion from Table II
T1 construct: containing 4×10^5 syngenic spleen cells and 10^5 T-hybridoma cells; from tissue; host or cells: spleen cells syngeneic to DBA/1 mice (H-2q), used as antigen presenting cells
Method: Lymph node cells were obtained from DBA/1 mice immunized with α1(II)-CB11 emulsified with complete Freund's adjuvant and cultured in vitro with α1(II)-CB11 for five days, and in the presence of IL-2 for three days before fusion. Hybridoma cells reactive to CB11 [CII 245-270] and CII were cloned by limiting dilution to 0.3 cells/well. Antigen presentation experiments were performed in 96 well […] plates in a total volume of 0.3 ml containing 4×10^5 syngenic spleen cells and 10^5 T-hybridoma cells. For competitive inhibition assays, spleen cells were pulsed with various ratios of inhibitor to indicator peptide and washed several times prior to addition to the antigen presentation culture. Cell cultures were maintained at 37° C. in 5% humidified CO2 for 20 to 24 hours, after which seven 80 μl two-fold serial dilutions were made for determination of IL-2 titers. Four thousand HT-2 cells were added to each supernatant dilution, and after 16 to 20 hours HT-2 cell viability was evaluated by visual inspection. IL-2 titers were determined by the reciprocal of the highest two-fold serial dilution maintaining 90% viability of the HT-2 cells. Results are presented as units of IL-2 per ml of undiluted supernatant as described by Kapper et al. Kappler, J., J. White, D. Wegman, E. Mustain, and P. Marrack, 1982, Antigen Presentation by Ia^+B Cell Hybridomas to H-2 Restricted T Cell Hybridomas. Proc. Natl. Acad. Sci. USA 79:3604. The disclosure of this article is incorporated by reference.
The inability of some analog peptides to stimulate T cells likely occurs either because of disruption of peptide binding to the I-A^q molecule or the inability of the T cell receptor to recognize the peptide. In order to determine whether the analog peptides could bind to the class II molecule, competitive antigen presentation assays were performed. Antigen presenting cells (APC) were pulsed with various molar ratios of CII 245-270 and an analog peptide, and tested for their ability to stimulate CII 245-270 specific T cell hybridomas.

CII-primed T cells = experiment: T cell stimulation assay, γ-IFN production by CII-primed spleen and lymph node cells; format: cell-based, mice; conditions: CII-primed T cells cultured with 100 μm of antigen; FIG. 1
Method: Nowarck H., E. Hahn, R. Timple, 1976, “Requirements for T Cells in the Antibody Response of Mice to Calf Skin Collagen,” J. Immunol. 30:29. Each peptide was cultured with pooled spleen and lymph node cells from CII-immunized mice, and culture supernatant fluids were tested for the presence of γ-interferon as an indicator of T cell stimulation. T cell hybridomas were established by polyethylene glycol-induced fusion of lymph node cells with the T cell receptor α^−/β^−thymoma line, BW5147. White, M., M. Blackman, J. Bill, J. Kappler, P. Marrack, D. P. Gold, and W. Born, 1989, Two Better Cell Lines for Making Hybridomas Expressing Specific T Cell Receptors. J. Immunol. 143:1822. […]
(§1) T cell stimulation assays were performed in 96 well plates and the degree of stimulation was quantitated by measurements of γ-IFN production. […] Supernatants were collected from 72 to 120 hours later and either […] analyzed for γ-IFN production immediately or stored at −70° C. prior to analysis. Quantitative measurement of murine gamma interferon was done using a solid-phase enzyme-linked immunosorbent assay (Amgen Biologicals, Thousand Oaks, Calif.). […] The absorbance was measured at 405 nm with a spectrophotometer, and a standard curve was obtained by plotting the absorbance versus the corresponding concentration of the standards. Units of γ-interferon were calculated based on NIH standard number Gg02-901-533. […]

CII-primed, bulk T cells = experiment: Inhibition of antigen presentation to CII-primed bulk T cells (co-culture); format: cell-based, DBA/1 mice; conditions: analog co-cultured with CII 245-270 or native CII at various ratios; FIG. 2
Method: as §1, with “production. Myers, L. K., K. Terato, J. M. Seyer, J. M. Stuart, and A. H. Kang, 1992, Characterization of a Tolerogenic T Cell Epitope of Type II Collagen and its Relevance to Collagen-Induced Arthritis. J. Immunol. 149:1439. The disclosure of this article is incorporated by reference. Spleens and lymph nodes from mice immunized with CII 14 to 21 days prior were individually minced into single cell suspensions in Hank's Balanced Salt Solution (BSS) and washed 3 times.” for “production.”

[2] = system: collagen induced arthritis in neonatally tolerized mice; conditions: Myers et al. 1989, J. Exp. Med. 170:1999; cited from earlier work
[3] = system: collagen induced arthritis (CIA) in DBA/1 mice; experiment: Collagen induced arthritis, simultaneous immunization with CII and peptide; format: in vivo; conditions: for Development / incidence of arthritis, in words: co-injected with native CII, molar ratio CII:peptide 1:480
[4] = system: antibodies reactive with type II collagen; experiment: Serum antibodies to CII by ELISA in co-immunized mice; format: in vivo, DBA/1 mice; conditions: for Antibodies to CII: serum four weeks after immunization, mean
Method: (§2) Mice were bled at four weeks after immunization and the serum was tested for antibodies reactive with type II collagen by enzyme-linked immunoassay (ELISA) described in Stuart, J. M., A. S. Townes, and A. H. Kang. 1982. Nature and Specificity of the Immune Response to Collagen in Type II Collagen-Induced Arthritis in Mice, J. Clin. Invest. 69:673. The disclosure of this article is incorporated by reference An anti-CII serum standard was used in each assay. A standard curve was derived by computer analysis using a 4 parameter logistic curve. Results are reported as units of activity, derived by comparison of test sera with the curve derived from the anti-CII standard which was arbitrarily defined as having 50 units of activity. Sera from mice were tested individually, and means were calculated for each experimental group.
In order to assess the effects of co-immunizing mice with both CII 245-270[s260, 261, 263] and CII, the mean antibody titers to native CII were measured for each immunization group in Table III, four weeks after immunization (Table IV).

[5] = system: collagen induced arthritis in neonatally tolerized mice; experiment: Neonatal tolerance: peptide given at birth, CII challenge at eight weeks, arthritis observed; format: in vivo; conditions: administered to neonatal mice prior to immunization with CII
Source text: To measure the incidence of arthritis in immunized mice, individuals examined and scored each of the forepaws and hind paws on a scale of 0-4 as described in Wooley, P. H., H. W. Luthra, J. M. Stuart and C. S. David. 1981. “Type 11 Collagen-induced Arthritis in Mice”. I. Major Histocompatibility Complex (I region) Linkage and Antibody Correlates. J. Exp. Med. 154:688. This article is incorporated herein by reference. There were two separate examiners, one of whom was unaware of the identity of the treatment groups. Each mouse was scored three times a week beginning three weeks post immunization and continuing through 8 weeks post immunization. The incidence of arthritis (number of animals with one or more arthritic limbs) was reported at 6 weeks post immunization, the time point at which the control group reached its peak of disease. The incidence of arthritis in various groups of mice was compared using Fisher's Exact Test. Student's T test was used to compare means of antibody responses to CII.
The foregoing data support the hypothesis that analog peptide CII 245-270[s260, 261, 263] competes for binding to I-A^q. […] Synthetic peptides were solubilized directly in phosphate buffered saline (PBS) at a concentration of 1 mg/ml. […]

antibodies to CII = experiment: Serum antibodies to CII by ELISA in neonatally treated mice; format: in vivo; conditions: 100 μg antigen in IFA intraperitoneally within 24 hours of birth; serum four weeks after immunization; mean titer
Method: as §2
The foregoing data support the hypothesis that analog peptide CII 245-270[s260, 261, 263] competes for binding to I-A^q. […] Synthetic peptides were solubilized directly in phosphate buffered saline (PBS) at a concentration of 1 mg/ml. Neonatal mice were tolerized using a protocol described by Gammon et al.^21 in which antigen emulsified with incomplete Freund's adjuvant was injected intraperitoneally. Gammon, Dunn, Shastri, Oki, Wilbur, Sercarz, 1986, Neonatal T Cell Tolerance to Minimal Immunogenic Peptides is Caused by Clonal Inactivation, Nature (Lond) 319:413. […]

Binding to I-A^q / competition for presentation of the wild type peptide to T-cell hybridomas [1]: did not compete
Substance: CII 245-270 [s266, 267, 269]: analog of CII 245-270 with D at 266, T at 267, A at 269 (type I collagen based substitutions) (PTGPLGPKGQTGELGIAGFKGDTGAK)
T cell stimulation (γ-interferon) compared to the wild type peptide CII 245-270 (CII-primed T cells): did not respond
T cell responses to CII 245-270 and CII (CII-primed, bulk T cells): no significant effect

Substance: Pro - Thr - Gly - Pro - Leu - Gly - Pro - Lys - Gly - Gin - Thr - Gly - Glx - Leu - Gly - Ile - Ala - Gly - Phe - Lys - Gly - Glx - Gln - Gly - Pro - Lys [CII 245-270, reference compound]
Suppression of arthritis as neonatal tolerogen [2]: suppresses arthritis
Development / incidence of arthritis, in words [3]: did not alter the incidence of disease
Antibodies to CII ([4]; molar ratio CII:peptide 1:480): 54 ± 25 units of activity
Effectiveness as neonatal tolerogen, in words [5]: effective tolerogen
Antibodies to CII (antibodies to CII): 18.5 ± 8

IL-2 ([1]; T-cell hybrid 2qCII92.33, molar ratio competitor:CII 245-270 1.6:1): 160 U/ml
IL-2 ([1]; T-cell hybrid 2qCII92.33, molar ratio competitor:CII 245-270 3.2:1): 80 U/ml
IL-2 ([1]; T-cell hybrid 2qCII92.33, molar ratio competitor:CII 245-270 6.5:1): 20 U/ml
IL-2 ([1]; T-cell hybrid qCII85.33, molar ratio competitor:CII 245-270 1.6:1): 640 U/ml
IL-2 ([1]; T-cell hybrid qCII85.33, molar ratio competitor:CII 245-270 3.2:1): 320 U/ml
IL-2 ([1]; T-cell hybrid qCII85.33, molar ratio competitor:CII 245-270 6.5:1): 40 U/ml
IL-2 ([1]; T-cell hybrid qCII98.10, molar ratio competitor:CII 245-270 1.6:1): 160 U/ml
IL-2 ([1]; T-cell hybrid qCII98.10, molar ratio competitor:CII 245-270 3.2:1): 80 U/ml
IL-2 ([1]; T-cell hybrid qCII98.10, molar ratio competitor:CII 245-270 6.5:1): 40 U/ml
Ability of competitively pulsed APC to stimulate the T-cell hybridomas ([1]; analog:CII 245-270 molar ratios of 6:1 or greater): greatly reduced
Binding to I-A^q / competition for presentation of the wild type peptide to T-cell hybridomas [1]: capable of binding to I-A^q
Substance: Pro - Thr - Gly - Pro - Leu - Gly - Pro - Lys - Gly - Gln - Thr - Gly - Glx - Leu - Gly - Ala - 4Hyp - Gly - Asn - Lys - Gly - Glx - Gln - Gly - Pro - Lys [CII 245-270 [s260, 261, 263], analog of CII 245-270 with alanine at 260, hydroxyproline at 261, asparagine at 263]
Incidence of arthritis and number of arthritic limbs, in words ([3]; co-immunized with CII at various molar ratios): dose-dependent decrease
Development / incidence of arthritis, in words [3]: arthritis did not develop
IL-2 ([1]; T-cell hybrid 2qCII92.33, molar ratio competitor:CII 245-270 13:1): — (A “—” indicates less than 20 U/ml of IL-2 detected)
IL-2 ([1]; T-cell hybrid qCII85.33, molar ratio competitor:CII 245-270 13:1): —* (A “—” indicates less than 20 U/ml of IL-2 detected)
IL-2 ([1]; T-cell hybrid qCII98.10, molar ratio competitor:CII 245-270 13:1): — (A “—” indicates less than 20 U/ml of IL-2 detected)
Immune responses to CII in vivo as well as in vitro, in words ([4]; co-immunization with CII): significantly down regulated
Antibodies to CII ([4]; molar ratio CII:peptide 1:160): 53 ± 25 units of activity
Antibodies to CII ([4]; molar ratio CII:peptide 1:320): 34 ± 22 units of activity
Antibodies to CII ([4]; molar ratio CII:peptide 1:480): 17 ± 3 units of activity
Effectiveness as neonatal tolerogen, in words ([5]; 261, 263]): ineffective as a CII tolergen; also recorded: very poor tolerogen
T cell stimulation (γ-interferon) compared to the wild type peptide CII 245-270 (CII-primed T cells): did not respond
Antibodies to CII (antibodies to CII): 55.6 ± 19
T cell responses to CII 245-270 and CII (CII-primed, bulk T cells): significantly decreased responses to both CII 245-270 and CII in a dose dependent manner
